Molecular target: T1, Equilibrative nucleoside transporter 1 (Homo sapiens, UniProt Q99808)
T1 sequence (Q99808 whole entry): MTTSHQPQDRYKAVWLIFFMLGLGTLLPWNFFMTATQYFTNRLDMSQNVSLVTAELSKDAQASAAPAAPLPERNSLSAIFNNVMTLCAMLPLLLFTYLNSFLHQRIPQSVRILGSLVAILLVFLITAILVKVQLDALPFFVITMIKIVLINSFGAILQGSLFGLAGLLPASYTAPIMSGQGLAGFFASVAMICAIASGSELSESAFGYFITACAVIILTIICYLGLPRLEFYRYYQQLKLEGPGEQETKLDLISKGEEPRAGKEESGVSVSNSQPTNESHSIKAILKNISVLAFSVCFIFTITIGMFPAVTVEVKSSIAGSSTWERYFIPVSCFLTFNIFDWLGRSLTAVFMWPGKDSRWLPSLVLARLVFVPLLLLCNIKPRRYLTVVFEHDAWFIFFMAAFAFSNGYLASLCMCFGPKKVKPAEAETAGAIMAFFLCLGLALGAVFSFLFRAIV
Assay: Inhibition of the equilibrative nucleoside transporter (ENT1, SLC29A1) as assessed by GPCR-mediated changes in cell morphology using the impedance-based transporter activity through receptor activation (TRACT) assay (PubChem AID: 1745861)
Type: functional, U2OS

IC50: 5.3 nM
SMILES: NC(=O)C1CN(CCCCC(c2ccc(F)cc2)c2ccc(F)cc2)CCN1CC(=O)Nc1c(Cl)cc(N)cc1Cl (stereo unspecified) [DRAFLAZINE]
